For series [1], the system named is L. donovani intracellular amastigotes. Briefly: Intracellular L. donovani amastigote assay in THP-1 cells (image-based). Conditions: for IC50: Leishmania donovani, amastigotes in PMA-treated THP-1 cells, 72 h, read-out: Intracellular L. donovani Inhibition IC50; for Selectivity Index (SI): THP-1 CC50 / amastigotes IC50. It is filed as cell-based, Leishmania donovani. As to the method:
(§1) PMA-treated THP-1 cells were seeded at 0.8 × 10^4 cells per well in a 384-well plate in RPMI-1640 complete medium supplemented with 10% FBS. After 48 h of incubation at 37 °C in the presence of 5% CO2, the L. donovani amastigotes, isolated from infected hamster liver, were added to the cell culture at a ratio of 10:1. The infected THP-1 cells were treated with screening compounds (the same set used in the promastigotes HTS) at 10 µM, with amphotericin B and miltefosine serving as positive controls and 0.5% DMSO as a negative control. After 72 h, the cells and parasites were washed, stained, and fixed with 5 µM DAPI and 4% PFA. Images were acquired through Operetta® CLS™ (PerkinElmer, Shelton, CT, USA), and the numbers of parasites, host cells, and infection ratios were quantified using the Columbus™ software (https://www.perkinelmer.com/product/image-data-storage-and-analysis-system-columbus, accessed on 7 February 2024) (PerkinElmer, Shelton, CT, USA). The hits identified from the screening were confirmed by testing in a 10-point, 1/2 dilution manner starting from 400, 200, 100, or 50 μM in duplicates of two independent experiments to calculate the IC50 values.
(§2) All of the IC50 and the half-maximal cytotoxic concentration (CC50) values were calculated using two independent experiments. Outliers were excluded, and the dose–response curves were fitted using the GraphPad Prism V6.0 software (GraphPad Software, San Diego, CA, USA) by using a sigmoidal dose–response equation with a variable hill slope option.

For a further series, the system named is THP-1 cells. Briefly: Host cell cytotoxicity in the intracellular Leishmania assay (THP-1 cell ratio). It is filed as cell-based, Human. Conditions: host THP-1 cells in the intracellular assay, 72 h. As to the method: as §1, §2
Series [2] deals with L. donovani promastigotes. Description: L. donovani promastigote viability assay (resazurin). The note with it: Leishmania donovani; 72 h exposure, resazurin readout, two independent experiments; read-out: L. donovani Promastigote Inhibition IC50. It is filed as cell-based. As to the method:
The inhibition of L. donovani promastigote growth was assessed by measuring the conversion of resazurin to resorufin. The promastigotes were dispensed at a density of 5 × 10^4 L. donovani promastigotes per well into 384-well plates and exposed to the natural product library composed of 2562 molecules at 10 μM for 72 h. Following the incubation, resazurin sodium salt was added, and the plates were further incubated for 5 h before fixation using 4% paraformaldehyde. The results were then analyzed using a Victor3™ plate reader (PerkinElmer, Shelton, CT, USA) at an emission wavelength of 590 nm and an excitation wavelength of 530 nm. Amphotericin B and miltefosine served as reference drugs for inhibiting the growth of L. donovani promastigotes. The hits identified from the screening were confirmed by testing in a 10-point, 1/2 dilution manner starting from 400, 200, 100, or 50 μM (depending on the solubility and activity) in duplicates of two independent experiments to calculate the IC50 values.
as §2

The next series concerns L. infantum. Details: method as in PMID 32441133. Conditions: read-out: IC50 against L. infantum; cited from earlier work.
Series [3] deals with eukaryotic RNA polymerase. More on the design: method as in PMID 32342856. The note with it: higher constant indicates lower affinity; cited from earlier work.
The next series has as its system hepatic parasites. More on the design: method as in PMID 37091674. Conditions: murine model of visceral leishmaniasis; cited from earlier work.
The test system of series [4] is intracellular amastigotes. More on the design: method as in PMID 37091674. The note with it: read-out: IC50 against intracellular amastigotes; cited from earlier work.
The test system of the next series is T. cruzi. Details: method as in PMID 28498323. Conditions: read-out: IC50 against T. cruzi; cited from earlier work.
Another series deals with Trypanosoma brucei. Details: method as in PMID 28498323. Conditions: read-out: IC50 against Trypanosoma brucei; cited from earlier work.
Series [5] relates to L. donovani amastigotes. Details: method as in PMID 28498323. The note with it: read-out: IC50 against L. donovani amastigotes; cited from earlier work.
For series [6], the system named is L. donovani amastigotes. Details: method as in PMID 30319238. Conditions: read-out: IC50 against L. donovani amastigotes; cited from earlier work.
A further series concerns T. brucei. More on the design: method as in PMID 30319238. The note with it: read-out: IC50 against T. brucei; cited from earlier work.

Where “and” joins values, the source holds several entries; their conditions need not be identical. Equal values may be shown once. Read-outs that look alike come from different tables or passages of the source.

On to `OC1C=C2CCN3Cc4cc5c(cc4C(C1O)C23)OCO5` (centres unmarked) [BMD-NP-00820], for which, in series [1], the half-maximal inhibitory concentration (IC50) (as a rule, the concentration that inhibits the measured activity by half) is 1.74 ± 0.27 µM and the “Selectivity Index (SI)” value is recorded as greater than 28.7. Further, the “THP-1 Cell Ratio CC50” value in the series with THP-1 cells is reported as greater than 50.00 µM. For the same molecule, the half-maximal inhibitory concentration (IC50) in [2] worked out at 3.99 ± 0.4 µM.

For the molecule `O[C@H]1[C@H]2c3cc4c(cc3CN3CCC(=C[C@@H]1O)[C@H]23)OCO4` [BMD-NP-01077, Lycorine], in [1], the 50% inhibitory concentration (IC50) was determined as 2.63 ± 0.57 µM and the “Selectivity Index (SI)” value was greater than 19.0. The “THP-1 Cell Ratio CC50” value in the series with THP-1 cells is given as greater than 50.00 µM. Moreover, the half-inhibitory concentration (IC50) in [2] is 6.99 ± 0.74 µM.

`CC(C)C1CC(=O)Oc2cc(O)c3c(=O)cc(-c4ccc(O)c(O)c4)oc3c21` (centres unmarked) [BMD-NP-01550]: the half-inhibitory concentration (IC50) was found to be 3.44 ± 0.64 µM in series [1] and 23.5 ± 0.52 µM in series [2]. Further, the “Selectivity Index (SI)” value in series [1] is 6.1. Besides, the “THP-1 Cell Ratio CC50” value in the series on THP-1 cells was determined as 20.84 ± 1.04 µM.

`COc1cc([C@@H]2CC(=O)Oc3ccc4c(=O)c(-c5ccccc5)coc4c32)ccc1O` [BMD-NP-01555]: the values for the concentration for half-maximal inhibition (IC50) in series [1] and in [2] were 2.2 ± 0.29 µM and 12.9 ± 0.28 µM, respectively. Moreover, the “THP-1 Cell Ratio CC50” value in the series with THP-1 cells was greater than 50.00 µM.

Turning to `O=C1C[C@H](c2cccnc2)c2c(cc(O)c3c(=O)c(-c4ccc(Cl)cc4)coc23)O1` [BMD-NP-01559], the results for the half-inhibitory concentration (IC50) in series [1] and in [2] were 2.37 ± 0.49 µM and 19.08 ± 0.13 µM, respectively. The “Selectivity Index (SI)” value in series [1] is recorded as greater than 21.1. The “THP-1 Cell Ratio CC50” value in the series with THP-1 cells was greater than 50.00 µM.

As for `COc1ccc([C@H]2CC(=O)Oc3ccc4c(c32)O/C(=C\c2cc(OC)c(OC)cc2OC)C4=O)cc1O` [BMD-NP-01562], in series [1], the half-inhibitory concentration (IC50) was 5.1 ± 0.34 µM and the “Selectivity Index (SI)” value is listed as greater than 9.8. In addition, the “THP-1 Cell Ratio CC50” value in the series with THP-1 cells is greater than 50.00 µM. Further, in series [2], the IC50 was 9.88 ± 0.71 µM.

For the molecule `COc1cc(C=C2Oc3c(ccc4c3C(c3ccnn3C(C)C)CC(=O)O4)C2=O)cc(OC)c1OC` (centres unmarked) [BMD-NP-01586], the concentration for half-maximal inhibition (IC50) in series [1] worked out at 2.97 ± 0.33 µM; in [2], 36.3 ± 0.42 µM. In addition, in series [1], the “Selectivity Index (SI)” value worked out at 12.4. The “THP-1 Cell Ratio CC50” value in the series with THP-1 cells is on record as 36.90 ± 1.13 µM.

As for `CCCCOc1ccc(C(=O)Oc2c(C)c3c4c5c2C(=O)C(=C(N2CCCCC2)C5=O)NC(=O)C(C)=CC=CC(C)C(O)C(C)C(O)C(C)C(OC(C)=O)C(C)C(OC)C=COC(C)(O3)C4=O)cc1` (centres unmarked) [BMD-NP-02070], the values for the IC50 in [1] and in [2] were 3.34 ± 0.42 µM and 29.9 ± 1.27 µM, respectively. Further, the “Selectivity Index (SI)” value in series [1] is on record as greater than 15.0.

Take `COC1C=COC2(C)Oc3c(C)c(OC(=O)c4ccccc4)c4c(c3C2=O)C(=O)C(N2CC(C)OC(C)C2)=C(NC(=O)C(C)=CC=CC(C)C(O)C(C)C(O)C(C)C(OC(C)=O)C1C)C4=O` (centres unmarked) [BMD-NP-02084]: the half-inhibitory concentration (IC50) in series [1] is 2.12 ± 0.4 µM; in [2] it was 2.53 ± 0.14 µM. In addition, in series [1], the “Selectivity Index (SI)” value stood at 5.9. For the same molecule, the “THP-1 Cell Ratio CC50” value with THP-1 cells is 12.45 ± 1.02 µM.

Take `COc1ccc(NC2=C3NC(=O)C(C)=CC=CC(C)C(O)C(C)C(O)C(C)C(OC(C)=O)C(C)C(OC)C=COC4(C)Oc5c(C)c(OC(=O)c6ccc(C)cc6)c(c(c5C4=O)C2=O)C3=O)cc1` (centres unmarked) [BMD-NP-02085]: in series [1], the IC50 was determined as 1.76 ± 0.85 µM; the “Selectivity Index (SI)” value is 7.5 and 7.4. The “THP-1 Cell Ratio CC50” value with THP-1 cells is 13.07 µM and 13.07 ± 0.56 µM. Also, the concentration for half-maximal inhibition (IC50) in [2] is 1.76 ± 0.28 µM.

For `COc1ccc(CCOc2cc([C@@H]3CC(=O)Oc4cc(O)c5c(=O)cc(-c6ccc(O)c(O)c6)oc5c43)ccc2OC)cc1` [BMD-NP-02255], the half-maximal inhibitory concentration (IC50) in series [1] was found to be 4.9 ± 0.65 µM; in series [2] it was 45.9 ± 1.09 µM. Besides, the “THP-1 Cell Ratio CC50” value with THP-1 cells was greater than 50.00 µM.

Regarding `CCCC1CC(=O)Oc2c(C(=O)C(C)C(C)O)c(O)c3c(c21)OC(C)(C)C=C3` (centres unmarked) [Calanolide E2], the concentration for half-maximal inhibition (IC50) in the series with L. infantum is 29.1 µM.

As for `CO[C@H]1/C=C/O[C@@]2(C)Oc3c(C)c(O)c4c(O)c(cc(O)c4c3C2=O)NC(=O)/C(C)=C\C=C\[C@H](C)[C@H](O)[C@@H](C)[C@@H](O)[C@@H](C)[C@H](OC(C)=O)[C@@H]1C` [Rifamycin], the “binding constant for eukaryotic RNA polymerase relative to prokaryotic RNA polymerase” value in series [3] is listed as 100 times.

As to `O=c1cc(-c2ccc(O)cc2)oc2cc(O)cc(O)c12` [apigenin, 4′,5,7-trihydroxyflavone], the “reduction in hepatic parasites” value with hepatic parasites is listed as 99.7%. The IC50 in series [4] is 2.3 µM.

Take `CCCCCCC/C=C/C=C/C(=O)NCCc1ccc(O)cc1` [dodeca-2E,4E-dienoic acid 4-hydroxy-2-phenylethylamide]: the 50% inhibitory concentration (IC50) with T. cruzi is 5.97 µM; with Trypanosoma brucei, 7.17 µM; in the series on L. donovani amastigotes [5], 13.3 µM.

Consider “methyl-ent-3β-hydroxylabd-8(17)-en-15-oate”, for which the IC50 was 7.82 µM in the series on L. donovani amastigotes [6] and 3.84 µM with T. brucei.
